The results in this text go back to article PMC4850295, “Using a Genetically Encoded Sensor to Identify Inhibitors of Toxoplasma gondii Ca^2+ Signaling” (The Journal of Biological Chemistry, 2016).

Several values for one entry are separate records, joined by “and”; a condition that tells them apart may be missing. Equal values may be shown once. Read-outs that look alike come from different tables or passages of the source.

For this test, the system named is T1, GCaMP5-expressing T. gondii.
T1 construct: whole extracellular parasites expressing GCaMP5 Ca2+ sensor
The arrangement: species or system GCaMP5-expressing Toxoplasma gondii, extracellular; GCaMP5 fluorescence (cytosolic Ca2+) after 100 uM zaprinast in compound-pretreated extracellular parasites, background-subtracted, relative to zaprinast alone. Particulars: 100 uM zaprinast stimulation, 10 min pretreatment, mean of two replicates, 0.23 h. The procedure, abridged:
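Read-out is GCaMP5 calcium fluorescence (ex 485/em 525 nm) taken 4 min after 100 μM zaprinast at 37 °C, following 10 min compound pretreatment at 10 μM in duplicate biological replicates. Values are basal-subtracted fold change versus zaprinast-only controls; parasites held extracellular in Ringer's solution.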

In the case of `CN(C)C(=O)O[C@@H]1CN[C@@H](C#Cc2cc3ncnc(Nc4ccc(OCc5cccc(F)c5)c(Cl)c4)c3s2)C1` [GSK238063A], the “fold change in fluorescence relative to zaprinast alone” value was determined as 1.133.
On the same count and under the same terms, under `c1ccc(-c2[nH]ncc2Nc2ccnc3ccccc23)nc1` [GW694077X] stands 1.237; under `O=C(Nc1n[nH]c2nc(-c3ccccc3)ccc12)C1CC1` [SB-708999], 1.075; under `Cc1ccc(C(=O)Nc2ccc(Nc3ccnc4cc(-c5nccs5)ccc34)cc2O)cc1` [GW494702A], 0.9828.
On the same count and under the same terms, next, `Cc1ccc(Nc2ccnc(Nc3ccc(C)c(F)c3)n2)cc1O` [GW582868A]: 1.057; `O=C(Nc1n[nH]c2nc(-c3ccco3)c(Br)cc12)C1CC1` [SB-739452]: 1.083; `CNC(=O)c1ccccc1Nc1nc(Nc2ccc(N3CCOCC3)cc2)ncc1Cl` [GSK1576028A]: 1.198.
Regarding `CS(=O)(=O)Cc1ccc(Nc2nccc(-c3c(-c4cccc(NC(=O)c5c(F)cccc5F)c4)nn4ccccc34)n2)cc1` [GSK323543A], the “fold change in fluorescence relative to zaprinast alone” value was found to be 1.565.
For `Cc1ccc(NC(=O)c2ccnc(N3CCN(C)CC3)c2)cc1-c1ccc(C(=O)NCC2CC2)cc1` [GW775604X], the “fold change in fluorescence relative to zaprinast alone” value is given as 1.197.
On to `CN(c1ccc2c(c1)nc(NCc1ccccc1)n2C)c1ccnc(Nc2ccc(CS(C)(=O)=O)cc2)n1` [GW811603A], for which the “fold change in fluorescence relative to zaprinast alone” value is 1.239.
With `Cc1cccc(Nc2nc(N[C@H]3CCCC[C@H]3N)ncc2C(N)=O)c1` [GSK986310C], the “fold change in fluorescence relative to zaprinast alone” value was 1.388.
Still for that read-out and setting: next, `[O-][S+]1CCN(Cc2ccc(-c3ccc4ncnc(Nc5ccc(OCc6ccccc6)c(Cl)c5)c4c3)o2)CC1` [GW583373A]: 0.2727.
Same read-out and setting: next, `CCCN1CCC(c2ccc(Nc3nc(Nc4cc(F)ccc4C(N)=O)c4cc[nH]c4n3)c(OC)c2)CC1` [GSK1326255A]: 1.826.
The same measure, in the same setting: next, `COc1cc2ncn(-c3cc(OCc4ccccc4C(F)(F)F)c(C(N)=O)s3)c2cc1OC` [GW843682X]: 1.213; `CCN(CC)CCOc1ccc(Nc2ncc3cc(-c4c(Cl)cccc4Cl)c(=O)n(C)c3n2)cc1` [SB-601273]: 0.7002; `O=C(Nc1ccc2c(c1)OCO2)NC1CCN(c2ccnc(NCc3ccc(F)cc3)n2)CC1` [GSK1379859A]: 0.7305.
Take `FC(F)(F)c1ccc(-c2cc(-c3cn[nH]c3-c3ccccn3)ccn2)cc1` [GW599550X]: the “fold change in fluorescence relative to zaprinast alone” value was determined as 1.459.
Same read-out and setting: under `NC(=O)c1ccc2c(-c3ccnc(NCCCO)n3)c(-c3ccc(F)cc3)nn2c1` [GW581744X] stands 0.8342.
On the same count and under the same terms, under `COc1cccc(C2=C(N(C)c3ccccc3)C(=O)NC2=O)c1` [SB-334865] stands 0.953.
For the compound `COC(=O)c1cccc(NC(=O)NC2CCN(c3ccnc(Nc4ccc(OC)cc4)n3)C2)c1` (stereo not shown) [GSK1379746A], the “fold change in fluorescence relative to zaprinast alone” value worked out at 1.123.
`O=C(Nc1n[nH]c2cc(-c3ccc(F)cc3)ccc12)C1CC1` [SB-735467]: the “fold change in fluorescence relative to zaprinast alone” value is 0.9628.
As for `CCn1c(-c2nonc2N)nc2cncc(C(=O)N3CC[C@H](N)C3)c21` [SB-772077-B], the “fold change in fluorescence relative to zaprinast alone” value is listed as 1.135.
Still for that read-out and setting: next, `COc1ccc(Nc2nccc(N3CCC(NC(=O)c4cccc(NC(C)=O)c4)C3)n2)cc1` (stereo not shown) [GSK1379732A]: 1.077.
Consider `Oc1ccc(-c2nc(-c3ccccc3)[nH]c2-c2ccncc2)cc1` [SB-428218-A], for which the “fold change in fluorescence relative to zaprinast alone” value is recorded as 1.23.
On to `COc1ccc(CNC(=O)NC2CCN(c3ccnc(Nc4ccc(F)cc4)n3)C2)cc1` (stereo not shown) [GSK1379706A], for which the “fold change in fluorescence relative to zaprinast alone” value is given as 0.6471.
The same measure, in the same setting: under `Cc1ccc(C(=O)NC2CCC2)cc1-c1ccc(C(=O)NCC2CC2)cc1` [GW782912X] stands 1.104.
As to `Cc1cccc(Nc2nc(NCCN)ncc2C(N)=O)c1` [GSK1292139B], the “fold change in fluorescence relative to zaprinast alone” value is reported as 0.903.
The same measure, in the same setting: next, `Nc1nc(-c2ccc3c(N)n[nH]c3c2)cc(N2CCCC2)n1` [GSK2227430A]: 1.158; `C[C@@H]1CC[C@@H](C(=O)Nc2ccccc2)CN1c1cc(-c2ccc3c(N)n[nH]c3c2)nc(N)n1` [GSK2286062A]: 0.9223.
With `Nc1ncc(-c2ccc3nccc(-c4ccncc4)c3c2)cc1S(=O)(=O)N1CCCCC1` [GSK1693850A], the “fold change in fluorescence relative to zaprinast alone” value is 0.1427.
Still for that read-out and setting: next, `c1ccc(-c2n[nH]cc2-c2ccnc(-c3ccc(OCCN4CCOCC4)cc3)c2)nc1` [GW695874X]: 1.104.
Still for that read-out and setting: under `COc1ccccc1C1=C(Nc2cccc(O)c2)C(=O)NC1=O` [SB-381891] stands 0.9532; under `O=C1NC(=O)C(c2ccccc2)=C1Nc1cccc(O)c1` [SB-390534], 0.8317.
On the same count and under the same terms, under `CS(=O)(=O)CCN(CC#N)Cc1ccc(-c2ccc3ncnc(Nc4ccc(OCc5cccc(F)c5)c(Cl)c4)c3c2)o1` [GW616030X] stands 1.169; under `O=C(Nc1n[nH]c2cc(-c3cc(F)ccc3F)ccc12)C1CC1` [SB-735465], 1.125.
For the compound `CCc1cccc(NC(=O)Nc2ccc(Oc3ccc4nc(NC(=O)OC)[nH]c4c3)cc2)c1` [GW673715X], the “fold change in fluorescence relative to zaprinast alone” value is 1.098.
Same read-out and setting: next, `COc1cccc(-n2ncc3c(N/N=C/c4ccc(C)cc4)ncnc32)c1` [GW829877X]: 1.18.
`COc1cc(Nc2ccnc3cc(-c4ccncc4)ccc23)cc(OC)c1OC` [GW494610A]: the “fold change in fluorescence relative to zaprinast alone” value came to 0.2498.
Turning to `CCn1c(-c2nonc2N)nc2c(C#CC(C)(C)O)nc(CN3CCCC3)cc21` [GSK1000163A], the “fold change in fluorescence relative to zaprinast alone” value is 1.153.
Turning to `COc1ccc2cc(-c3c(-c4ccncc4)nc(-c4ccc([S+](C)[O-])cc4)n3C)ccc2c1` (stereo not shown) [SB-437013], the “fold change in fluorescence relative to zaprinast alone” value came to 1.038.
Turning to `O=C1NC(=O)C(c2cccc(Cl)c2)=C1Nc1ccc(Cl)c(C(=O)O)c1` [SB-409513], the “fold change in fluorescence relative to zaprinast alone” value was found to be 1.123.
For the compound `CCn1c(-c2nonc2N)nc2c(C#CCN)ncc(OCCCN)c21` [GSK561866B], the “fold change in fluorescence relative to zaprinast alone” value was determined as 1.218.
On the same count and under the same terms, under `CN(C)Cc1ccc(-c2ccc3c(Nc4ccc(Oc5ccccn5)cc4)ccnc3c2)o1` [GW567148X] stands 1.129.
Same read-out and setting: under `CC1=C(C(=O)Nc2ccc3[nH]nc(C)c3c2)C(c2ccc(C(F)(F)F)cc2)CC(=O)N1` (stereo not shown) [GSK466314A] stands 1.189; under `c1ccc(Oc2ccc(Nc3ccnc4cc(-c5ccc(CN6CCCCC6)o5)ccc34)cc2)nc1` [GW567143X], 0.8249; under `CCS(=O)(=O)c1ccc(OC)c(Nc2ncc(-c3cccc(OC)c3)o2)c1` [GW580509X], 1.14.
On the same count and under the same terms, under `Nc1ncnc2occ(-c3ccc4c(c3)CCN4C(=O)Cc3cc(F)ccc3F)c12` [GSK2645446A] stands 0.8883.
As for `COc1cc2c(Nc3cccc(NC(=O)c4ccccc4)c3)ncnc2cc1OCCCN1CCOCC1` [GSK223810A], the “fold change in fluorescence relative to zaprinast alone” value stood at 1.471.
On to `COc1cc2ncn(-c3cc(O[C@H](C)c4ccccc4Cl)c(C(N)=O)s3)c2cc1OC` [GSK237701A], for which the “fold change in fluorescence relative to zaprinast alone” value is listed as 0.7907.
On the same count and under the same terms, next, `CCn1c(-c2nonc2N)nc2c(C#CC(C)(C)O)ncc(OCCCCN)c21` [GSK507274A]: 1.063; `COc1ccc(Nc2nccc(NCCNC(=O)c3cc4ccccc4s3)n2)cc1` [GSK1379896A]: 1.173.
Still for that read-out and setting: under `CS(=O)(=O)Nc1ccc(N/C=C2\C(=O)Nc3ccccc32)cc1` [GW278681X] stands 1.254.
`CS(=O)(=O)CCNCc1ccc(-c2ccc3ncnc(Nc4ccc(OCc5ccccc5)c(Cl)c4)c3c2)o1` [GW574783B]: for the setting “10 µM”, the “fold change in fluorescence relative to zaprinast alone” value is 0.7755 and 0.8833.
On to `FC(F)(F)c1cc(Nc2nccc(-c3c(-c4ccc(Cl)cc4)nn4ncccc34)n2)ccc1Cl` [GW829351X], for which the “fold change in fluorescence relative to zaprinast alone” value turned out to be 0.8408.
On the same count and under the same terms, next, `CS(=O)(=O)CCNCc1cc(-c2cc3c(Nc4ccc(OCc5cccc(F)c5)c(Cl)c4)ncnc3s2)cs1` [GSK300014A]: 1.033.
The same measure, in the same setting: under `CC(C)c1ccc(-c2cc(-c3c[nH]nc3-c3ccccn3)ccn2)cc1` [GW682841X] stands 1.973; under `FC(F)(F)c1cc(Br)cc(Nc2nccc(-c3cnn4ncccc34)n2)c1` [GW810578X], 0.9472.
For `COc1ccc2cc(-c3nc(-c4ccccc4C(C)C)[nH]c3-c3ccncc3)ccc2c1` [SB-660566], the “fold change in fluorescence relative to zaprinast alone” value came to 0.9646.
As to `N#Cc1cnc2cc(-c3cnc(CNCCN4CCOCC4)s3)ccc2c1Nc1ccc(Oc2ccccc2)cc1` [GW664114X], the “fold change in fluorescence relative to zaprinast alone” value was 1.528.
Same read-out and setting: under `NC[C@H](CC1CCCCC1)NC(=O)c1ccc(-c2ccnc3[nH]ccc23)s1` [GSK1581428A] stands 1.197; under `COc1cc2ncnc(Nc3cccc(Br)c3)c2cc1OC` [GI230329A], 1.268.
